Laboratory results taken from patent US20190330141A1, “Compositions With A Cooling Effect” (The Procter & Gamble Company, priority 2018, published 2019).
Structures can show the parent of a compound that is named as a salt. Where two headings read alike, the source gives them in different places. One block for each compound: values may come before it.

Columns and labels:
human TRPM8 = molecular target: T1, human TRPM8 (Homo sapiens, UniProt Q7Z2W7); assay: TRPM8 Protocol-FLIPR Assay (intracellular Ca2+ in transfected HEK-293 cells); format: cell-based; conditions: for EC50 values compared with Comp 4: comparison with the EC50 value of Comp 4
T1 construct: expressed in transfected cells; host or cells: HEK-293
T1 sequence (Q7Z2W7 whole entry): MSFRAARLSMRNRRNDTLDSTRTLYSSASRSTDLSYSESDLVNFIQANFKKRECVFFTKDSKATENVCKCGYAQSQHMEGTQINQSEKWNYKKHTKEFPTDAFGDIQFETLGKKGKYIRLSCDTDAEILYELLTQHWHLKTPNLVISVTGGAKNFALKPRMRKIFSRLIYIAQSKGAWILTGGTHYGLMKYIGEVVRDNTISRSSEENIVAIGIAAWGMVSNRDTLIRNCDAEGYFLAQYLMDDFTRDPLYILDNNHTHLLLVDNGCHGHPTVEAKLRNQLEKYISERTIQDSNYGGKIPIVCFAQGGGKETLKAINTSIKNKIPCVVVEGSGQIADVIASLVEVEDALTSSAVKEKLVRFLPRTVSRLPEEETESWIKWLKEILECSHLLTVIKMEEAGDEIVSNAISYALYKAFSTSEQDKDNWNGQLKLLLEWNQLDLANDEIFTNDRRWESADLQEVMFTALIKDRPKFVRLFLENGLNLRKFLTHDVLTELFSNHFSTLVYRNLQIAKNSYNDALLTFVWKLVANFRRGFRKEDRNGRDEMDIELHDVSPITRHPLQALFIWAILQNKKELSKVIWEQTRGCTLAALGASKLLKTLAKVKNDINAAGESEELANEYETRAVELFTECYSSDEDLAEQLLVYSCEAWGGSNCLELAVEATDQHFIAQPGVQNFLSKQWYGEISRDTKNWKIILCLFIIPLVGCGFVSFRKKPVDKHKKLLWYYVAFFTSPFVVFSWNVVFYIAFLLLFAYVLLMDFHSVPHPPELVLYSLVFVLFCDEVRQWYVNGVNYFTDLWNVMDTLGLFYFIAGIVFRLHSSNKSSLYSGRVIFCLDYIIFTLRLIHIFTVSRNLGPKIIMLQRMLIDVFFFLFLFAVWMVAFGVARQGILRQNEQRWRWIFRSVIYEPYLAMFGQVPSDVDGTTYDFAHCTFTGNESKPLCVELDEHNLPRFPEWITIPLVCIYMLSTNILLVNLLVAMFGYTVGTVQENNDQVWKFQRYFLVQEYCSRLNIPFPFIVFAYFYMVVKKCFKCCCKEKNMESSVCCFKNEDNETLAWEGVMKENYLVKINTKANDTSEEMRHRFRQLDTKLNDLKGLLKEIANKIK
Procedure: To determine whether TRPM8 is activated, the intracellular calcium ion (Ca^2+) level was measured from transfected cells with the TRPM8 receptor sequence (SEQ ID NO: 1). HEK-293 (human embryonic kidney) cells stably transfected with human TRPM8 were grown in 15 mL growth medium (high glucose DMEM (Dulbecco's Modification of Eagle's Medium) supplemented with 10% FBS (fetal bovine serum), 100 μg/mL penicillin/streptomycin, 5 μg/mL blasticindin, and 100 μg/mL zeocin) in a 75 cm^2 flask for 3 days at 37° C. in a mammalian cell culture incubator (Forma Scientific Model 3110, Marietta, Ohio) set at 5% CO2. Cells were detached with addition of 2 mL of trypsin-EDTA buffer (GIBCO® 25200, Invitrogen, Grand Island, N.Y.) for about 2-3 min. Trypsin was inactivated by addition of 8 mL growth medium. Cells were transferred to a 50 mL tube and centrifuged at 850 rpm for 3 minutes to remove medium. After centrifugation, a pellet of cells was formed in the bottom of the tube separating them from the supernatant solution. The supernatant was discarded and the cell pellet was suspended in 1 mL of fresh growth medium to which 5 μL (12.5 μg) of Fluo-4 AM (Molecular Probes, Inc., Eugene, Oreg.) calcium indicator was added and incubated for 30 min with gentle shaking. Fluo-4 AM is a fluorescent dye used for quantifying cellular Ca^2+ concentrations in the 100 nM to 1 μM range. At the end of 30 minutes, 45 mL of assay buffer (1×HBSS (Hank's Balanced Salt Solution), 20 mM HEPES (4-(2-Hydroxyethyl)-1-piperazineethanesulfonic acid)) was added to wash cells and the resulting mixture was then centrifuged at 850 rpm for 3 minutes at 20° C. to remove excess buffer and Fluo-4 AM calcium indicator.
The pelleted cells were re-suspended in 10 mL assay buffer and 90 μL aliquots (50,000 cells) per well delivered to a 96-well assay plate containing 10 μL of test compounds (1 mM in assay buffer, final concentration 100 μM) or buffer control and incubated at room temperature for 30 minutes. After 30 minutes, a plate (Falcon 353219, Corning Corning N.Y.) was placed into a fluorometric imaging plate reader (FLIPR384 from Molecular Devices, Sunnyvale, Calif.) and basal fluorescence recorded (excitation wave length 488 nm and emission wave length 510 nm). Then 20 μL of 100 mM of TRPM8 agonist WS5 coolant in the assay buffer was added and fluorescence recorded. For determining the direct effect of test compounds on TRPM8, fluorescence was measured immediately after addition of each compound. Additional discussion of the FLIPR method can be found in Smart et al., Characterization using FLIPR of human vanilloid VR1 receptor pharmacology, European Journal of Pharmacology 417, 51-58 (2001) and Liu et al., Development and validation of a platelet calcium flux assay using a fluorescent imaging plate reader, Analytical Biochemistry 357, 216-224 (2006).
The magnitude of the fluorescence of the active-treated cells was compared to the magnitude of the fluorescence from a benchmark agonist (WS-5), as described above. The percentage of fluorescence as a function of active dose was plotted and a sigmoidal curve was generated. Curve fitting from this dose-response curve yielded the value for TRPM8 EC50 in μM found in TABLE 8.
TRPM8 activation was determined by measuring intracellular calcium ion (Ca^2+) level from transfected cells with the TRPM8 receptor gene, as described in EXAMPLE 12, the results of which are shown in TABLE 8. EC50 values are provided in column 3 of TABLE 8, which measured the concentration of activating compound needed to […]. […]

[1] = concentration where the cooling effect could be clearly recognized; cited from earlier work
[2] = HEK-293 cells stably transfected with human TRPM8, fluorescence compared to benchmark agonist WS-5, dose-response curve fit, read-out: TRPM8 Activity EC50
[3] = less than about 1 μM, 0.6 μM, or the EC50 value of Comp 3, read-out: EC50 values

SMILES: N[C@H](CNC(=O)c1ccccc1)c1ccccc1 [Comp 1, reference compound]
EC50 (human TRPM8; [2]): > 10000 nM

SMILES: Cc1ccc(C(C)C)c(OC(=O)C[C@@H](N)c2ccccc2)c1 [Comp 2, reference compound]
EC50 (human TRPM8; [2]): 12000 nM

SMILES: CC(C)[C@@H]1CC[C@@H](C)C[C@H]1C(=O)Nc1ccc(CC#N)cc1 [Comp 3, reference compound]
EC50 (human TRPM8; [2]): 600 nM

SMILES: CC(C)[C@@H]1CC[C@@H](C)C[C@H]1C(=O)NC[C@@H](NC(=O)[C@H](C)N)c1ccccc1 [Comp 4, reference compound]
EC50 (human TRPM8; [2]): 9 nM

SMILES: CC(C)[C@@H]1CC[C@@H](C)C[C@@H]1O [Compound 1-neomenthol, 1-neomenthol]
cooling threshold [1]: about 3,000 ppb

SMILES: NCC(=O)N[C@H](CNC(=O)c1ccccc1)c1ccccc1 [Compound 1a, (S)-2-((2-benzamido-1-phenylethyl)amino)-2-oxoethan-1-aminium chloride]
EC50 (human TRPM8; [2]): 655 nM | EC50 (human TRPM8; [3]): < 1000 nM

SMILES: C[C@@H](N)C(=O)N[C@H](CNC(=O)c1ccccc1)c1ccccc1 [Compound 1c, (R)-1-(((S)-2-benzamido-1-phenylethyl)amino)-1-oxopropan-2-aminium chloride]
EC50 (human TRPM8; [2]): 582 nM | EC50 (human TRPM8; [3]): < 1000 nM

SMILES: C[C@@H](N)C(=O)N[C@H](CNC(=O)c1cccnc1)c1ccccc1 [Compound 2c, (R)-1-(((S)-2-(nicotinamido)-1-phenylethyl)amino)-1-oxopropan-2-aminium chloride]
EC50 (human TRPM8; [2]): 28000 nM

SMILES: Cc1ccc(C(C)C)c(C(=O)NC[C@@H](NC(=O)CN)c2ccccc2)c1.Cl [Compound 6a]
EC50 values compared with Comp 4 (human TRPM8): about the same or less than the EC50 value of Comp 4

SMILES: CC(C)[C@@H]1CC[C@@H](C)C[C@H]1O [L-menthol]
cooling threshold [1]: about 800 ppb

SMILES: CC(C)[C@@H]1CC[C@@H](C)C[C@@H]1O [d-neomenthol]
cooling threshold [1]: about 25,000 ppb

Continued, in another order:

EC50 (human TRPM8; [2]): 1200 nM
SMILES: CC(C)=CCC/C(C)=C/C(=O)NC[C@@H](NC(=O)CN)c1ccccc1 [Compound 4a, (S,E)-2-((2-(3,7-dimethylocta-2,6-dienamido)-1-phenylethyl)amino-2-oxoethan-1-aminium chloride]

EC50 (human TRPM8; [2]): 1450 nM
SMILES: CC(C)=CCC/C(C)=C/C(=O)NC[C@@H](NC(=O)[C@@H](C)N)c1ccccc1 [Compound 4b, (R)-1-(((S)-2-((E)-3,7-dimethylocta-2,6-dienamido)-1-phenylethyl)amino)-1-oxopropan-2-aminium chloride]

EC50 (human TRPM8; [2]): 1.9 nM | EC50 (human TRPM8; [3]): < 1000 nM
SMILES: Cc1ccc(C(C)C)c(C(=O)NC[C@@H](NC(=O)CN)c2ccccc2)c1.Cl [Compound 6a, (S)-2-((2-(2-isopropyl-5-methylbenzamido)-1-phenylethyl)amino-2-oxoethan-1-aminium chloride]

EC50 (human TRPM8; [2]): 155 nM | EC50 (human TRPM8; [3]): < 1000 nM
SMILES: Cc1ccc(C(C)C)c(C(=O)NC[C@@H](N)c2ccccc2)c1 [Compound 6b, (S)-2-(2-isopropyl-5-methylbenzamido)-1-phenylethan-1-aminium chloride]

EC50 (human TRPM8; [2]): 3.2 nM | EC50 (human TRPM8; [3]): < 1000 nM
SMILES: Cc1ccc(C(C)C)c(C(=O)NC[C@@H](NC(=O)[C@@H](C)N)c2ccccc2)c1.Cl [Compound 6c, (R)-1-(((S)-2-(2-isopropyl-5-methylbenzamido)-1-phenylethyl)amino)-1-oxopropan-2-aminium chloride]
EC50 values compared with Comp 4 (human TRPM8): about the same or less than the EC50 value of Comp 4

EC50 (human TRPM8; [2]): 6.6 nM | EC50 (human TRPM8; [3]): < 1000 nM
SMILES: Cc1ccc(C(C)C)c(C(=O)NC[C@@H](NC(=O)[C@H](C)N)c2ccccc2)c1.Cl [Compound 6d, (S)-1-(((S)-2-(2-isopropyl-5-methylbenzamido)-1-phenylethyl)amino)-1-oxopropan-2-aminium chloride]
EC50 values compared with Comp 4 (human TRPM8): about the same or less than the EC50 value of Comp 4

EC50 (human TRPM8; [2]): 230 nM | EC50 (human TRPM8; [3]): < 1000 nM
SMILES: Cc1ccc(C(C)C)c(OC(=O)C[C@@H](NC(=O)CN)c2ccccc2)c1 [Compound 7a, (R)-2-((3-(2-isopropyl-5-methylphenoxy)-3-oxo-1-phenylpropyl)amino-2-oxoethan-1-aminium chloride]

EC50 (human TRPM8; [2]): 60 nM | EC50 (human TRPM8; [3]): < 1000 nM
SMILES: Cc1ccc(C(C)C)c(OC(=O)C[C@@H](NC(=O)[C@@H](C)N)c2ccccc2)c1 [Compound 7b, (R)-1-(((R)-3-(2-isopropyl-5-methylphenoxy)-3-oxo-1-phenylpropyl)amino)-1-oxopropan-2-aminium chloride]

EC50 (human TRPM8; [2]): 415 nM | EC50 (human TRPM8; [3]): < 1000 nM
SMILES: CC(C)C(C)(C(=O)OC[C@@H](NC(=O)[C@H](C)N)c1ccccc1)C(C)C [Compound 8a, (S)-2-((S)-2-aminopropanamido)-2-phenylethyl 2-isopropyl-2,3-dimethylbutanoate hydrochloride]

EC50 (human TRPM8; [2]): 57 nM | EC50 (human TRPM8; [3]): < 1000 nM
SMILES: CC(C)C(C)(C(=O)OC[C@@H](NC(=O)[C@@H](C)N)c1ccccc1)C(C)C [Compound 8b, (S)-2-((R)-2-aminopropanamido)-2-phenylethyl 2-isopropyl-2,3-dimethylbutanoate hydrochloride]

EC50 (human TRPM8; [2]): 7.85 nM | EC50 (human TRPM8; [3]): < 1000 nM
SMILES: CC(C)C(C)(C(=O)NC[C@@H](OC(=O)CN)c1ccccc1)C(C)C.Cl [Compound 10a, (S)-2-(2-isopropyl-2,3-dimethylbutanamido)-1-phenylethyl glycinate hydrochloride]
EC50 values compared with Comp 4 (human TRPM8): about the same or less than the EC50 value of Comp 4

EC50 (human TRPM8; [2]): 17.2 nM | EC50 (human TRPM8; [3]): < 1000 nM
SMILES: NCC(=O)O[C@H](CNC(=O)C12CC3CC(CC(C3)C1)C2)c1ccccc1 [Compound 11a, (S)-2-((3S,5S,7S)-adamantane-1-carboxamido)-1-phenylethyl glycinate hydrochloride]
